Measured values reported in patent US20240165145A1, “COMPOSITIONS AND METHODS FOR TREATING CANCER AND BIOMARKERS TO DETECT CANCER STEM CELL REPROGRAMMING AND PROGRESSION” (The Regents of the University of California, priority 2016, published 2024).

What was measured:
[1] = system: normal CD34+ hematopoietic progenitors; test: Secondary colony replating of normal CD34+ progenitors after SL/M2 stromal co-culture; type: cell-based, human; details: SL/M2 stromal co-cultures; 8-Aza 10-25 nM, SAR302503 100 nM
Protocol: FIG. 5h graphically illustrates data of a percentage of secondary colonies formed after replating primary colonies from normal bone marrow or BC CD34. cells treated with different dose of 8-aza (n=3).
FIG. 5i graphically illustrates data of a percentage of secondary colonies formed after replating primary colonies from normal bone marrow or BC CML following treatment.
H5100™ media (StemCell Technologies) along with different treatment. After 2 week of culture human cells were plated, in triplicate, in Methocult™ media (StemCell Technologies) for colony-forming and replating assays.
Following lentiviral transduction or in vitro culture with SL/M2 stroma, human cells were harvested, counted by trypan blue exclusion and 100-200 cells were plated per well of a 12-well plate in Methocultmedia. After 2 weeks, total colonies were counted and replated for secondary colony-formation assay.

LIN28B = LIN28B expression in CD34+ cord blood cells co-transduced with lenti-JAK2 and lenti-BCR-ABL; type: cell-based, human; details: JAK2/BCR-ABL1 transduced progenitors, two weeks SL/M2 stromal co-culture; 8-Aza 10-25 nM, SAR302503 100 nM
ADAR1 isoforms (p150) = test: qRT-PCR of ADAR1 expression in CD34+ cord blood cells co-transduced with lenti-JAK2 and lenti-BCR-ABL on SL/M2 stromal cultures; details: for ADAR1 expression: JAK2/BCR-ABL1 transduced progenitors, two weeks SL/M2 stromal co-culture, 8-Aza 10-25 nM, SAR302503 100 nM
RNA editing of APOBEC3D = test: RESSqPCR RNA editing ratio of APOBEC3D in CD34+ cord blood cells co-transduced with lenti-JAK2 and lenti-BCR-ABL; type: cell-based, human; details: JAK2/BCR-ABL1 transduced progenitors, two weeks SL/M2 stromal co-culture; 8-Aza 10-25 nM, SAR302503 100 nM
ADAR1 = molecular target: T1, ADAR1 (Homo sapiens, UniProt P55265); test: RESSqPCR RNA editing ratio of APOBEC3D in K562 cells transduced with ADAR1 WT or ADAR1 E912A mutant; type: cell-based; details: K562 leukemic cell line, lentiviral ADAR1 WT or ADAR1 E912A
T1 construct: Full-length human adenosine deaminase, RNA-specific (ADAR1), transcript variant 1; T2A-GFP cassette of the vector pCDH-EF1-T2A-GFP (self-cleaving 2A; any remnant on ADAR1 not described); expressed in transfected cells; host or cells: K562 leukemia cells, lentiviral transduction (pCDH backbone)
T1 sequence (P55265 1-1226): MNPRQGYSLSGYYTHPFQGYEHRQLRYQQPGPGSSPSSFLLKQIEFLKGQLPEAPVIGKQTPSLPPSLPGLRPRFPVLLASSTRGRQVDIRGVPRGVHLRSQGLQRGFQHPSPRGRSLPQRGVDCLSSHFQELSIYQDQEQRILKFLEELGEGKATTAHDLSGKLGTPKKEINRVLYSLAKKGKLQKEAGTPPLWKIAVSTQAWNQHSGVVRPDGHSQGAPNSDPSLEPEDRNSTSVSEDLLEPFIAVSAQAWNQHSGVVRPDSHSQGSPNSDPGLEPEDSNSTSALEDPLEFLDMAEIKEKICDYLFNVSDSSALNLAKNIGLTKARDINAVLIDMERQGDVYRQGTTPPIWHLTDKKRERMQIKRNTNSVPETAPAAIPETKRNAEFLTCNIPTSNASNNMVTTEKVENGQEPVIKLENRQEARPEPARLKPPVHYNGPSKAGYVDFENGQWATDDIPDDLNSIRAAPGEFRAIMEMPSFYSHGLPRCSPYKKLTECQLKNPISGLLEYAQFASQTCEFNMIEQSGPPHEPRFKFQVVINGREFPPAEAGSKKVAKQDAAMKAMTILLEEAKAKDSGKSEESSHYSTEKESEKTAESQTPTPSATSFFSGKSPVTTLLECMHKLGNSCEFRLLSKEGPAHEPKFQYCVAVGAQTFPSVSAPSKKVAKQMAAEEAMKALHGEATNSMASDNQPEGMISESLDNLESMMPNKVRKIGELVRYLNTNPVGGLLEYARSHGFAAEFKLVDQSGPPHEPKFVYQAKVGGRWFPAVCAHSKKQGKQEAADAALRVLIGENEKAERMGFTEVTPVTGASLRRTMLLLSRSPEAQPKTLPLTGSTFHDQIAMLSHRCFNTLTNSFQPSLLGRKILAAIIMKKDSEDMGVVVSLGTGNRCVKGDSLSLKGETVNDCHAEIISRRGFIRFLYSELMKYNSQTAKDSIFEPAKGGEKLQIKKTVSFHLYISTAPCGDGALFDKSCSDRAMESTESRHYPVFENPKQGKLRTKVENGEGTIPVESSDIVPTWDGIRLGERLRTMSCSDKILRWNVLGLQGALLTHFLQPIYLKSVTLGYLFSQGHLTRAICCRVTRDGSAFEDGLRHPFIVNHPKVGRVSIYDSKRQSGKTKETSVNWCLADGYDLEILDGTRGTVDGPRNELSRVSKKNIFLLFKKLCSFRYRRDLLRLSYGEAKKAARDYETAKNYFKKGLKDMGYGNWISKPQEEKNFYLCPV
Text: FIG. 5b graphically illustrates data of a RNA editing ratio of APOBEC3D by RESSqPCR in K562 leukemia cells transduced with ADAR1 WT and ADAR1E912A mutant following 8-aza treatment (n=3). The values are normalized to the editing ratio observed in pCDH control cells.
As previously described (Yildirim et al., 2013), for each RNA editing site, two sets of primers were used: one pair detecting the WT transcript (an “A” base), and one pair detecting the edited transcript containing a “G” base representing inosine substitution. The forward (FW) outer and reverse (REV) outer primers flank the editing site and can be used for Sanger sequencing validation of each editing site, and also as a qRTPCR positive control to ensure that the editing region is detectable in cDNA. The 3′ ends of the FW inner and REV inner primers match either the WT A or edited G nucleotide, and an additional mismatch was incorporated two nucleotides upstream of the 3′ primer end to enhance allelic discrimination, as previously described for quantitative detection of transcripts harboring single nucleotide genomic mutations. RESSqPCR was performed as recently described (Yildirim et al., 2013) using highly validated RNA editing site specific primers for APOBEC3D. […] Relative RNA editing rates (Relative edit/WT RNA) were calculated using the following calculation: 2^-(Ct Edit-Ct WT).

[2] = system: BCR-ABL and JAK2 signaling; test: qRT-PCR of BCR-ABL and JAK2 mRNA and p-CRKL, p-STAT5a Western blot in K562 cells; type: cell-based, human; details: 8-aza at increasing concentrations
Text: FIG. 14(a) graphically illustrates a RT-qPCR analysis of BCR-ABL and JAK2 mRNA in K562 cells transduced with pCDH vector control, lenti-ADAR1 WT, and lenti-ADAR1 mutant treated with 8-aza at increasing concentrations (n=3). FIG. 14(b) illustrates a Quantification of p-STAT5, p-CRKL, and β-actin protein expression in K562 cells transduced with pCDH vector control, lenti-ADAR1 WT, and lenti-ADAR1 mutant treated with 8-aza at increasing concentrations (n=3).

let-7 miRNA = test: miRNA PCR of let-7 family in CD34+ cord blood cells co-transduced with lenti-JAK2 and lenti-BCR-ABL on SL/M2 stromal cultures; type: cell-based, human
Protocol: Human specific RPL27 primers were used as housekeeping control. MicroRNA extraction was performed using the RNeasy Micro Kit (Qiagen) according to the manufacturer's instructions. Then 30 ng of cDNA was prepared in a reverse transcription reaction using miScript RTII™ kit (Qiagen) and served as a template for the quantification of the expression of mature miRNA of interest. Also, qRT-PCR was performed using miRNA human-specific primers and SYBR Green Kit (Qiagen). MiScript™ primers, RNU6_2 (Qiagen), were used as housekeeping control.

[3] = system: ADAR-mediated A-to-I editing activity in K562 leukemia cells co-transduced with lenti-ADAR1 and lenti-JAK2; test: Dual luciferase reporter assay of ADAR-specific RNA editing activity in K562 cells; type: cell-based, human; details: SAR302503 100 nM or 300 nM, 3 hrs
[4] = JAK2/BCR-ABL1 transduced progenitors, two weeks SL/M2 stromal co-culture, 8-Aza 10-25 nM, SAR302503 100 nM
[5] = JAK2/BCR-ABL1 transduced normal CD34+ progenitors, SAR302503 100 nM and 600 nM on SL/M2 stromal cultures

Nc1ncnc2c1nnn2[C@@H]1O[C@H](CO)[C@@H](O)[C@H]1O [8-aza, 8-azaadenosine]
self renewal capacity of normal CD34+ hematopoietic progenitors [1]: not significantly impaired
LIN28B expression (LIN28B): reduction
ADAR1 expression (ADAR1 isoforms (p150)): reduction in ADAR1 expression
RNA editing activity (APOBEC3D RESSqPCR) (RNA editing of APOBEC3D): reduction
ADAR1's adenosine-to-inosine (A-to-I) editing activity (ADAR1): reduced ADAR1's adenosine-to-inosine (A-to-I) editing activity
effect on BCR-ABL and JAK2 signaling (qRT-PCR, p-CRKL and p-STAT5a Western blot) [2]: no effect on BCR-ABL and JAK2 signaling
let-7 miRNA biogenesis (let-7 miRNA; [4]): restored let-7 miRNA biogenesis

Cc1cnc(Nc2ccc(OCCN3CCCC3)cc2)nc1Nc1cccc(S(=O)(=O)NC(C)(C)C)c1 [SAR302503, N-tert-Butyl-3-{5-methyl-2-[4-(2-pyrrolidin-1-yl-ethoxy)-phenylamino]-pyrimidin-4-ylamino}-benzenesulfonamide]
LIN28B expression (LIN28B): reduction
ADAR1 p150 isoform expression (ADAR1 isoforms (p150); [5]): reduced ADAR1 p150 isoform expression
ADAR1 expression (ADAR1 isoforms (p150)): reduction in ADAR1 expression
RNA editing activity (APOBEC3D RESSqPCR) (RNA editing of APOBEC3D): reduction
RNA editing activity (luciferase reporter) [3]: reversed RNA editing activity in a dose dependent manner
let-7 miRNA biogenesis (let-7 miRNA; [5]): restored let-7 miRNA biogenesis in a dose-dependent manner
let-7 miRNA biogenesis (let-7 miRNA; [4]): restored let-7 miRNA biogenesis
